Reference: patent publication US12448399B2, “Cereblon-based KRAS degrading PROTACs and uses related thereto” (Arvinas Operations, Inc., priority 2023, dated 2025)

Molecular target: T1, KRas-G12D (Homo sapiens, UniProt P01116, G12D)
T1 construct: insert the HiBiT tag onto the N-terminus of one or more of the endogenous KRas alleles; host or cells: AsPC-1 HiBiT-KRasG12D knock-in clone (one tagged allele, two untagged KRasG12D alleles)
Test: HiBiT Degradation Assay (G12D), AsPC-1 HiBiT-KRasG12D cells, 24 hr
Format: cell-based
Conditions: for Dmax: ASPC1, AsPC-1 cells, maximum degradation observed; for DC50: AsPC-1 cells
In short: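 AsPC-1 cells with CRISPR N-terminal HiBiT knock-in on one endogenous KRasG12D allele, treated 24 hr at 37° C with compound titrations in 0.5% DMSO. Lytic HiBiT luminescence normalized to DMSO, fitted to a 4-parameter model for DC50 and Dmax. Parallel alamar blue (4 hr) checked viability.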

T1 sequence (P01116 1-188 isoform P01116-2 G12D): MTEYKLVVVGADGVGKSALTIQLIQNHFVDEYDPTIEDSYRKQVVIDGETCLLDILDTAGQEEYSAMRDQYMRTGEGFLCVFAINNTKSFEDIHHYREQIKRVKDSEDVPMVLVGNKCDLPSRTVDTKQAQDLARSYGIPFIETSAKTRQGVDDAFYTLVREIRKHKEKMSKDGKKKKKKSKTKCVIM

SMILES | Dmax [%] | DC50 [µM]
C#Cc1c(F)ccc2cc(O)cc(-c3ncc4c(N5CC6CCC(C5)N6)nc(OC[C@@H]5C[C@@H](OC6CCN(CC7(F)CCN(c8ccc9c(c8F)CN(C8CCC(=O)NC8=O)C9=O)CC7)CC6)CN5C)nc4c3F)c12 (stereo partly drawn) [Compound 112, 3-(5-{4-[(4-{[(3R,5S)-5-{[(4-{3,8-diazabicyclo[3.2.1]octan-3-yl}-7-(8-ethynyl-7-fluoro-3-hydroxynaphthalen-1-yl)-8-fluoropyrido[4,3-d]pyrimidin-2-yl)oxy]methyl}-1-methylpyrrolidin-3-yl]oxy}piperidin-1-yl)methyl]-4-fluoropiperidin-1-yl}-4-fluoro-1-oxo-2,3-dihydro-1H-isoindol-2-yl)piperidine-2,6-dione] | > 70 | < 5.1
C#Cc1c(F)ccc2cc(O)cc(-c3ncc4c(N5C[C@H]6CC[C@@H](C5)N6)nc(OC[C@@H]5C[C@@H](OC6CCN(CC7CCN(c8ccc9c(c8Cl)CN(C8CCC(=O)NC8=O)C9=O)CC7)CC6)CN5C)nc4c3F)c12 (stereo partly drawn) [Compound 113, 3-(5-(4-((4-(((3R,5S)-5-(((4-((1R,5S)-3,8-diazabicyclo[3.2.1]octan-3-yl)-7-(8-ethynyl-7-fluoro-3-hydroxynaphthalen-1-yl)-8-fluoropyrido[4,3-d]pyrimidin-2-yl)oxy)methyl)-1-methylpyrrolidin-3-yl)oxy)piperidin-1-yl)methyl)piperidin-1-yl)-4-chloro-1-oxoisoindolin-2-yl)piperidine-2,6-dione] | > 70 | < 5.1
C#Cc1c(F)ccc2cc(O)cc(-c3ncc4c(N5CC6CCC(C5)N6)nc(OC[C@@H]5CC[C@@H](COC(=O)N6CCN(c7ccc8c(c7)CN(C7CCC(=O)NC7=O)C8=O)CC6)N5C)nc4c3F)c12 (stereo partly drawn) [Compound 114, [(2S,5S)-5-{[(4-{3,8-diazabicyclo[3.2.1]octan-3-yl}-7-(8-ethynyl-7-fluoro-3-hydroxynaphthalen-1-yl)-8-fluoropyrido[4,3-d]pyrimidin-2-yl)oxy]methyl}-1-methylpyrrolidin-2-yl]methyl 4-[2-(2,6-dioxopiperidin-3-yl)-1-oxo-2,3-dihydro-1H-isoindol-5-yl]piperazine-1-carboxylate] | – | < 5.1
C#Cc1c(F)ccc2cc(O)cc(-c3ncc4c(N5CC6CCC(C5)N6)nc(OC[C@@H]5C[C@@H](OC6CCN(CC7CCN(c8cccc9c8CN(C8CCC(=O)NC8=O)C9=O)CC7)CC6)CN5C)nc4c3F)c12 (stereo partly drawn) [Compound 115, 3-(4-{4-[(4-{[(3R,5S)-5-{[(4-{3,8-diazabicyclo[3.2.1]octan-3-yl}-7-(8-ethynyl-7-fluoro-3-hydroxynaphthalen-1-yl)-8-fluoropyrido[4,3-d]pyrimidin-2-yl)oxy]methyl}-1-methylpyrrolidin-3-yl]oxy}piperidin-1-yl)methyl]piperidin-1-yl}-1-oxo-2,3-dihydro-1H-isoindol-2-yl)piperidine-2,6-dione] | > 70 | < 5.1
C#Cc1c(F)ccc2cc(O)cc(-c3ncc4c(N5CC6CCC(C5)N6)nc(OC[C@@H]5C[C@@H](OC6CCN(CC7CCN(c8ccc9c(c8)CN(C8CCC(=O)NC8=O)C9=O)CC7)CC6)CN5C)nc4c3F)c12 (some centres unmarked) [Compound 116] | > 70 | < 5.1
C#Cc1c(F)ccc2cc(O)cc(-c3ncc4c(N5CC6CCC(C5)N6)nc(OC[C@@H]5CC[C@@H](COC(=O)N6CCN(c7cccc8c7CN(C7CCC(=O)NC7=O)C8=O)CC6)N5C)nc4c3F)c12 (stereo partly drawn) [Compound 117, [(2S,5S)-5-{[(4-{3,8-diazabicyclo[3.2.1]octan-3-yl}-7-(8-ethynyl-7-fluoro-3-hydroxynaphthalen-1-yl)-8-fluoropyrido[4,3-d]pyrimidin-2-yl)oxy]methyl}-1-methylpyrrolidin-2-yl]methyl 4-[2-(2,6-dioxopiperidin-3-yl)-1-oxo-2,3-dihydro-1H-isoindol-4-yl]piperazine-1-carboxylate] | – | 0.25 to 1
CCc1cccc2cc(O)cc(-c3ncc4c(N5CC6CCC(C5)N6)nc(OC[C@@H]5C[C@@H](OC6CCN(c7cccc8c7CN(C7CCC(=O)NC7=O)C8=O)CC6)CN5C)nc4c3F)c12 (stereo partly drawn) [Compound 118, 3-[4-(4-{[(3R,5S)-5-{[(4-{3,8-diazabicyclo[3.2.1]octan-3-yl}-7-(8-ethyl-3-hydroxynaphthalen-1-yl)-8-fluoropyrido[4,3-d]pyrimidin-2-yl)oxy]methyl}-1-methylpyrrolidin-3-yl]oxy}piperidin-1-yl)-1-oxo-2,3-dihydro-1H-isoindol-2-yl]piperidine-2,6-dione] | – | > 1
C#Cc1c(F)ccc2cc(O)cc(-c3ncc4c(N5CC6CCC(C5)N6)nc(OCCN5CCC6(CC5)CN(CC5(F)CCN(c7ccc8c(c7F)CN(C7CCC(=O)NC7=O)C8=O)CC5)C6)nc4c3F)c12 (centres unmarked) [Compound 119, 3-(5-{4-[(7-{2-[(4-{3,8-diazabicyclo[3.2.1]octan-3-yl}-7-(8-ethynyl-7-fluoro-3-hydroxynaphthalen-1-yl)-8-fluoropyrido[4,3-d]pyrimidin-2-yl)oxy]ethyl}-2,7-diazaspiro[3.5]nonan-2-yl)methyl]-4-fluoropiperidin-1-yl}-4-fluoro-1-oxo-2,3-dihydro-1H-isoindol-2-yl)piperidine-2,6-dione] | – | < 5.1
C#Cc1c(F)ccc2cc(O)cc(-c3ncc4c(N5CC6CCC(C5)N6)nc(OCCN5CCC6(CC5)CCN(CC5(F)CCN(c7ccc8c(c7F)CN(C7CCC(=O)NC7=O)C8=O)CC5)CC6)nc4c3F)c12 (centres unmarked) [Compound 120, 3-(5-{4-[(9-{2-[(4-{3,8-diazabicyclo[3.2.1]octan-3-yl}-7-(8-ethynyl-7-fluoro-3-hydroxynaphthalen-1-yl)-8-fluoropyrido[4,3-d]pyrimidin-2-yl)oxy]ethyl}-3,9-diazaspiro[5.5]undecan-3-yl)methyl]-4-fluoropiperidin-1-yl}-4-fluoro-1-oxo-2,3-dihydro-1H-isoindol-2-yl)piperidine-2,6-dione] | > 70 | < 5.1
C#Cc1c(F)ccc2cc(O)cc(-c3ncc4c(N5CC6CCC(C5)N6)nc(OCCN5CCC6(CC5)CCN(CC5CCN(c7ccc8c(c7F)CN(C7CCC(=O)NC7=O)C8=O)CC5)CC6)nc4c3F)c12 (centres unmarked) [Compound 121, 3-[5-[4-[[9-[2-[4-(3,8-diazabicyclo[3.2.1]octan-3-yl)-7-(8-ethynyl-7-fluoro-3-hydroxy-1-naphthyl)-8-fluoro-pyrido[4,3-d]pyrimidin-2-yl]oxyethyl]-3,9-diazaspiro[5.5]undecan-3-yl]methyl]-1-piperidyl]-4-fluoro-1-oxo-isoindolin-2-yl]piperidine-2,6-dione] | > 70 | < 5.1
C#Cc1c(F)ccc2cc(O)cc(-c3ncc4c(N5CC6CCC(C5)N6)nc(OC[C@@H]5C[C@@H](OC6CCN(CC7CCN(c8ccc9c(c8F)CN(C8CCC(=O)NC8=O)C9=O)CC7)CC6)CN5C)nc4c3F)c12 (stereo partly drawn) [Compound 122, 3-(5-{4-[(4-{[(3R,5S)-5-{[(4-{3,8-diazabicyclo[3.2.1]octan-3-yl}-7-(8-ethynyl-7-fluoro-3-hydroxynaphthalen-1-yl)-8-fluoropyrido[4,3-d]pyrimidin-2-yl)oxy]methyl}-1-methylpyrrolidin-3-yl]oxy}piperidin-1-yl)methyl]piperidin-1-yl}-4-fluoro-1-oxo-2,3-dihydro-1H-isoindol-2-yl)piperidine-2,6-dione] | > 70 | < 5.1
C#Cc1c(F)ccc2cc(O)cc(-c3ncc4c(N5CC6CCC(C5)N6)nc(OCCN5CCC(CC6CCN(CC7CCN(c8ccc(F)c9c8CN(C8CCC(=O)NC8=O)C9=O)CC7)CC6)CC5)nc4c3F)c12 (centres unmarked) [Compound 123] | > 70 | < 5.1
C#Cc1c(F)ccc2cc(O)cc(-c3ncc4c(N5CC6CCC(C5)N6)nc(OCCN5CCC(F)(CC6CCN(CC7CCN(c8cccc9c8CN(C8CCC(=O)NC8=O)C9=O)CC7)CC6)CC5)nc4c3F)c12 (centres unmarked) [Compound 124, 3-{4-[4-({4-[(1-{2-[(4-{3,8-diazabicyclo[3.2.1]octan-3-yl}-7-(8-ethynyl-7-fluoro-3-hydroxynaphthalen-1-yl)-8-fluoropyrido[4,3-d]pyrimidin-2-yl)oxy]ethyl}-4-fluoropiperidin-4-yl)methyl]piperidin-1-yl}methyl)piperidin-1-yl]-1-oxo-2,3-dihydro-1H-isoindol-2-yl}piperidine-2,6-dione] | > 70 | < 5.1
C#Cc1c(F)ccc2cc(O)cc(-c3ncc4c(N5CC6CCC(C5)N6)nc(OCCN5CCC(CC6CCN(CC7(F)CCN(c8cccc9c8CN(C8CCC(=O)NC8=O)C9=O)CC7)CC6)CC5)nc4c3F)c12 (centres unmarked) [Compound 125, 3-{4-[4-({4-[(1-{2-[(4-{3,8-diazabicyclo[3.2.1]octan-3-yl}-7-(8-ethynyl-7-fluoro-3-hydroxynaphthalen-1-yl)-8-fluoropyrido[4,3-d]pyrimidin-2-yl)oxy]ethyl}piperidin-4-yl)methyl]piperidin-1-yl}methyl)-4-fluoropiperidin-1-yl]-1-oxo-2,3-dihydro-1H-isoindol-2-yl}piperidine-2,6-dione] | – | < 5.1
C#Cc1c(F)ccc2cc(O)cc(-c3ncc4c(N5CC6CCC(C5)N6)nc(OCCN5CCC(CN6CCC(CC7CCN(c8cccc9c8CN(C8CCC(=O)NC8=O)C9=O)CC7)CC6)CC5)nc4c3F)c12 (centres unmarked) [Compound 126, 3-{4-[4-({1-[(1-{2-[(4-{3,8-diazabicyclo[3.2.1]octan-3-yl}-7-(8-ethynyl-7-fluoro-3-hydroxynaphthalen-1-yl)-8-fluoropyrido[4,3-d]pyrimidin-2-yl)oxy]ethyl}piperidin-4-yl)methyl]piperidin-4-yl}methyl)piperidin-1-yl]-1-oxo-2,3-dihydro-1H-isoindol-2-yl}piperidine-2,6-dione] | > 70 | < 5.1
C#Cc1c(F)ccc2cc(O)cc(-c3nc(N4CC5CCC(C4)N5)c4cnc(OCCN5CCC6(CC5)CN(CC5CCN(c7ccc8c(c7F)CN(C7CCC(=O)NC7=O)C8=O)CC5)C6)nc4c3F)c12 (centres unmarked) [Compound 127] | – | < 5.1
